Measured values from US12128099B2 (priority 2018, dated 2024).
pIC50: −log10 of the molar value. “And” between values parts separate entries of the source, which are not always exact repeats. Identical values can stand only once. Like-named read-outs stand apart in the source and are kept apart here.

Key:
THP-1 SAMD9 KD cells = assay type: cell-based, human; conditions: FIGS. 15A-15D, 16C
[1] = test system: OC patient ascites-associated CD14+ monocytes
OvCa-26 = assay: cells; assay type: cell-based, human; conditions: read-out: calculated IC50
ID8 disseminated tumor = test system: ID8 disseminated tumor; set-up: species or system mice; conditions: mouse, in vivo
murine OC ID8 cells = assay type: cell-based
SKOV3 = assay: cells; assay type: cell-based, human
OvCa-2a = assay: cells; assay type: cell-based, human; conditions: read-out: calculated IC50
[2] = test system: primary OC cells (OvCa-2a and OvCa-26); assay type: cell-based, human

With Nc1nc2c(ncn2[C@@H]2O[C@@H]3COP(=O)(O)O[C@H]4[C@@H](O)[C@H](n5cnc6c(N)ncnc65)O[C@@H]4COP(=O)(O)O[C@@H]2[C@@H]3O)c(=O)[nH]1 [2′3′-cGAMP] the “IFNβ / ISG mRNA in SAMD9 KD cells versus control cells” value (THP-1 SAMD9 KD cells) was “comparably to control cells”.

In the case of O=[N+]([O-])c1ccc2c(c1)S(=O)(=O)C=C2 [Stattic], the IL-8 level [1] was “unchanged levels of IL-8”, the “cytokine secretion (IL-10, IL-6)” value [1] was “suppressive effect in cytokine secretion” and the toxicity [1] was “did not cause noticeable toxicity”.

In the case of N.N.[Cl][Pt][Cl] [cisplatin], the pIC50 (OvCa-26) was 4.94, the Median survival (ID8 disseminated tumor) was 113 days and 127 days and the median survival time (ID8 disseminated tumor) was 90 days. The survival (ID8 disseminated tumor) was 40%, the pIC50 (murine OC ID8 cells) was 5.70 and the pIC50 (SKOV3; read-out: IC50) was 5.08. The pIC50 (OvCa-2a) was 5.44, the “MYXV DNA replication” value (MYXV) was “inhibits DNA replication of MYXV” and the “growth inhibition, drug treatment alone” value [2] was “did not observe significant growth inhibition”.

Nc1ccn([C@@H]2O[C@H](CO)[C@@H](O)C2(F)F)c(=O)n1 [gemcitabine] was tested, and the pIC50 (OvCa-26; Homo sapiens) was 4.84, the median survival time (ID8 disseminated tumor) was 78 days and the “therapeutic benefit, single-agent treatment given late” value (ID8 disseminated tumor) was “did not lead to significant therapeutic benefit”. For the same compound, the pIC50 (SKOV3; Homo sapiens, SK-OV-3) was 5.03, the pIC50 (OvCa-2a; Homo sapiens) was 3.02 and the “growth inhibition, drug treatment alone” value [2] was “did not observe significant growth inhibition”.
